From publication PMC6508677, “Identification of druggable small molecule antagonists of the Plasmodium falciparum hexose transporter PfHT and assessment of ligand access to the glucose permeation pathway via FLAG-mediated protein engineering” (PLoS ONE, 2019)
Values joined by “and” are separate entries in the source; they are usually repeats but may differ in a detail not shown here. Identical values can stand only once. Like-named read-outs stand apart in the source and are kept apart here.

Molecular target: T1, PfHT (Plasmodium falciparum, UniProt Q7KWJ5)
T1 sequence (Q7KWJ5 1-504): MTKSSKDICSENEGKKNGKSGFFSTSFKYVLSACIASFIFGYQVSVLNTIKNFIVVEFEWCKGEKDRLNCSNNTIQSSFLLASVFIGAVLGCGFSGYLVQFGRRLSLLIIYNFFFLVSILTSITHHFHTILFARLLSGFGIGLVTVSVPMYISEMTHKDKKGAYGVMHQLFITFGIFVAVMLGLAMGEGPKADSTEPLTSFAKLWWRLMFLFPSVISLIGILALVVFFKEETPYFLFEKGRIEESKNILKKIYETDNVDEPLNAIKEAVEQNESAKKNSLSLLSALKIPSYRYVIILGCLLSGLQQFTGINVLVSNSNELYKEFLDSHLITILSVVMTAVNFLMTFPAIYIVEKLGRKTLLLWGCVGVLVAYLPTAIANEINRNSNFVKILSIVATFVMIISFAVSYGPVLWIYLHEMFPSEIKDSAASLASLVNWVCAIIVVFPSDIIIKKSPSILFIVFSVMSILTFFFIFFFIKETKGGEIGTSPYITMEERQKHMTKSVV
Test: 2-DG uptake by HEK293 cells overexpressing PfHT
Type: cell-based
Design: expressed in transfected cells; host or cells: HEK293 (HEK293-FLIP, native hGLUT1 knocked down by shRNA)
Conditions: for Maximum Inhibition (%): 2-DG uptake, PfHT cell line; for inhibition at 5 µM: read-out: % Inhibition of 2-DG uptake vs vehicle
Description: Generation of HEK293 cells overexpressing PfHT and human GLUTs 1–4 were described elsewhere. Briefly, HEK293 cells were transfected with pcDNA3.1 FLII12Pglu-7006 (Addgene), containing the fluorescence resonance energy transfer (FRET) glucose sensor (HEK293-FLIP) and PfHT, human GLUT1 (hGLUT1), hGLUT2, hGLUT3, hGLUT4, hGLUT5 or hGLUT8 using Optifect (Life Technologies) according to manufacturer’s specifications. To increase retention of GLUT8 at the plasma membrane, the dileucine sorting signal E^7E^8XXXLL was modified to R^7R^8XXXLL as described in [17]. Stable transfectants were selected for G418 and hygromycin resistance to select for FRET sensor and hexose transporter, respectively. HEK293-FLIP cells were also used to generate cells stably transfected with FLAG-tagged PfHT (FTPfHT). FLAG tag ([…]) followed by a triple glycine linker and a tobacco etch virus (TEV) protease site (ENLYFQS) followed by a triple glycine linker was added to the N-terminus of PfHT via PCR [18] using Phusion Hot Start II High-Fidelity DNA Polymerase (Fisher Scientific). Single clones were selected by comparing their abilities to transport glucose as assayed via FRET and radiolabeled hexose uptake. In all cell lines, except for HEK293 cells overexpressing hGLUT1 and hGLUT5, native hGLUT1 was knocked down using shRNA as described elsewhere. Transcript levels of the individual GLUTs expressed in each cell line are as described in [13, 15] and in S1 Fig.
Glucose uptake by P. falciparum was performed essentially as described. P. falciparum strain 3D7 was cultured in 100 mm tissue culture dishes (Techno Plastic Products) in a 2% suspension of human erythrocytes and RPMI 1640 medium until reaching > 7.5% parasitemia. Cells were pelleted via centrifugation and resuspended in RPMI 1640 medium. To determine the uptake of radiolabeled glucose into the parasite, parasites were isolated from infected erythrocytes by permeablization with saponin (0.05 w/v), followed by centrifugation, aspiration of supernatant and washing of the pellet 3X with saline solution (135 mM NaCl, 2 mM KCl, 25 mM HEPES, 0.2 mM glucose and 1 mM MgCl2; pH 7.1) to remove cellular debris. WU-1 or DMSO vehicle were added to 100 μl parasites (resuspended in saline) 5 min prior to the addition of 100 μl [^14C]2-DOG (0.2- μCi/ml final concentration). 2-DG uptake was stopped after 2 min by layering the entire reaction over 300 μl of an oil mixture (5:4 mix of dibutyl phthalate / dinonyl phthalate) in Eppendorf tubes and centrifuged at 15,850 × g for 2 mins. The ratio of the estimated intracellular concentration of radiolabel relative to the extracellular concentration were calculated as described. Uptake of radiolabeled hexose into HEK293 cells was measured in glucose-free HBSS as described previously. Briefly, cells were plated at 400,000 cells/well overnight at 37°C in 24-well plates pre-treated with PEI. After 30-min incubation at 37°C in glucose-free HBSS in the presence of vehicle or increasing concentrations of compound, 2-DG uptake was measured in glucose-free HBSS for 4 min at 37°C. Cultures were washed in ice-cold 1X PBS and lysed in 0.1% Triton X-100 in 1X PBS. Radiolabeled hexose uptake was determined by liquid scintillation counting (Ultima Gold, Thermo Fisher) and normalized to total protein per well. Uptake data are plotted as percent uptake relative to vehicle-treated cells. Kinetic analyses were performed using the indicated concentrations of substrate and WU-1, with quenching of uptake after 1 min incubation. Incubation times had been previously determined as being in the linear range of time-dependent radiolabeled hexose uptake (2 min for 2-DG uptake into freed parasites; 2 and 4 min for D-Frc and 2-DG uptake HEK cell lines, respectively). Data were fit by least squares nonlinear regression analysis using GraphPad Prism 6.0 software.

[1] = HEK293, 4 min, read-out: 2-DG Uptake AVE, PfHT, concentration 0.001 µM, Expt 1-3
[2] = IC50 (µM), PfHT, 2-DG Uptake, single experiments Expt 1-3
[3] = IC50 for inhibition of 2-DG uptake, HEK293 cells overexpressing PfHT, mean/reported value
[4] = HEK293, 4 min, read-out: 2-DG uptake (percent uptake relative to vehicle), AVE, PfHT, 0.001 µM compound
[5] = HEK293, 4 min, read-out: 2-DG uptake (percent uptake relative to vehicle), AVE, PfHT, 0.09375 µM compound
[6] = HEK293, 4 min, read-out: 2-DG uptake (percent uptake relative to vehicle), AVE, PfHT, 0.1875 µM compound
[7] = HEK293, 4 min, read-out: 2-DG uptake (percent uptake relative to vehicle), AVE, PfHT, 0.3125 µM compound (0.313 in Fig 1 sheet for WU-1)
[8] = HEK293, 4 min, read-out: 2-DG uptake (percent uptake relative to vehicle), AVE, PfHT, 0.375 µM compound
[9] = HEK293, 4 min, read-out: 2-DG uptake (percent uptake relative to vehicle), AVE, PfHT, 0.625 µM compound
[10] = HEK293, 4 min, read-out: 2-DG uptake (percent uptake relative to vehicle), AVE, PfHT, 1.25 µM compound
[11] = HEK293, 4 min, read-out: 2-DG uptake (percent uptake relative to vehicle), AVE, PfHT, 2.5 µM compound
[12] = HEK293, 4 min, read-out: 2-DG uptake (percent uptake relative to vehicle), AVE, PfHT, 5 µM compound
[13] = HEK293, 4 min, read-out: 2-DG uptake (percent uptake relative to vehicle), AVE, PfHT, 10 µM compound
[14] = HEK293, 4 min, read-out: 2-DG uptake (percent uptake relative to vehicle), AVE, PfHT, 20 µM compound
[15] = HEK293, 4 min, read-out: 2-DG uptake (percent uptake relative to vehicle), AVE, PfHT, 40 µM compound
[16] = IC50 for inhibition of 2-DG uptake, individual experiments, HEK293 PfHT, Expt 1-3

## C=C1[C@@H](C)[C@H]2[C@H](Cc3ccccc3)NC(=O)[C@]23OC(=O)/C=C/[C@H](O)CCC[C@@H](C)C/C=C/[C@H]3[C@@H]1O [CB, cytochalasin B]
AVE IC50 (µM), PfHT, 2-DG Uptake, average of Expt 1-3
  IC50: 10.9 µM
[1]
  remaining activity at 0.001 µM: 100%
HEK293, 4 min, read-out: 2-DG Uptake AVE, PfHT, concentration 0.3906 µM
  remaining activity at 0.3906 µM: 95.3%
HEK293, 4 min, read-out: 2-DG Uptake AVE, PfHT, concentration 0.7812 µM
  remaining activity at 0.7812 µM: 96.2%
HEK293, 4 min, read-out: 2-DG Uptake AVE, PfHT, concentration 1.56 µM
  remaining activity at 1.56 µM: 90.6%
HEK293, 4 min, read-out: 2-DG Uptake AVE, PfHT, concentration 3.125 µM
  remaining activity at 3.125 µM: 71%
HEK293, 4 min, read-out: 2-DG Uptake AVE, PfHT, concentration 6.25 µM
  remaining activity at 6.25 µM: 64.5%
HEK293, 4 min, read-out: 2-DG Uptake AVE, PfHT, concentration 12.5 µM
  remaining activity at 12.5 µM: 47.3%
HEK293, 4 min, read-out: 2-DG Uptake AVE, PfHT, concentration 25 µM
  remaining activity at 25 µM: 30.6%
HEK293, 4 min, read-out: 2-DG Uptake AVE, PfHT, concentration 50 µM
  remaining activity at 50 µM: 22.1%
HEK293, 4 min, read-out: 2-DG Uptake AVE, PfHT, concentration 100 µM
  remaining activity at 100 µM: 12.7%
HEK293, 4 min, read-out: 2-DG Uptake AVE, PfHT, concentration 200 µM
  remaining activity at 200 µM: 7.58%
HEK293, 4 min, read-out: 2-DG Uptake AVE, PfHT, concentration 400 µM
  remaining activity at 400 µM: 4.31%
[2]
  IC50: 10.3 µM and 12.6 µM and 9.78 µM
[3]
  IC50: 10.9 ± 0.9 µM

## Cc1ccc(S(=O)(=O)CCNC(=O)c2c(-c3c(Cl)cccc3Cl)noc2C)cc1 [WU-1, 3-(2,6-dichlorophenyl)-5-methyl-N-[2-(4-methylbenzenesulfonyl)ethyl]-1,2-oxazole-4-carboxamide]
  Maximum Inhibition (%): 93.2%
[1]
  remaining activity at 0.001 µM: 100%
HEK293, 4 min, read-out: 2-DG Uptake AVE, PfHT, concentration 0.09375 µM
  remaining activity at 0.09375 µM: 91.6%
HEK293, 4 min, read-out: 2-DG Uptake AVE, PfHT, concentration 0.1875 µM
  remaining activity at 0.1875 µM: 88.9%
HEK293, 4 min, read-out: 2-DG Uptake AVE, PfHT, concentration 0.3125 µM
  remaining activity at 0.3125 µM: 90.1%
HEK293, 4 min, read-out: 2-DG Uptake AVE, PfHT, concentration 0.375 µM
  remaining activity at 0.375 µM: 85.8%
HEK293, 4 min, read-out: 2-DG Uptake AVE, PfHT, concentration 0.625 µM
  remaining activity at 0.625 µM: 85.2%
HEK293, 4 min, read-out: 2-DG Uptake AVE, PfHT, concentration 0.75 µM
  remaining activity at 0.75 µM: 76.1%
HEK293, 4 min, read-out: 2-DG Uptake AVE, PfHT, concentration 1.25 µM
  remaining activity at 1.25 µM: 64.5%
HEK293, 4 min, read-out: 2-DG Uptake AVE, PfHT, concentration 2.5 µM
  remaining activity at 2.5 µM: 70.2%
HEK293, 4 min, read-out: 2-DG Uptake AVE, PfHT, concentration 5 µM
  remaining activity at 5 µM: 49.8%
HEK293, 4 min, read-out: 2-DG Uptake AVE, PfHT, concentration 10 µM
  remaining activity at 10 µM: 34.7%
HEK293, 4 min, read-out: 2-DG Uptake AVE, PfHT, concentration 20 µM
  remaining activity at 20 µM: 21.1%
HEK293, 4 min, read-out: 2-DG Uptake AVE, PfHT, concentration 40 µM
  remaining activity at 40 µM: 20.4%
HEK293, 4 min, read-out: 2-DG Uptake AVE, PfHT, concentration 80 µM
  remaining activity at 80 µM: 8.82%
HEK293, 4 min, read-out: 2-DG Uptake AVE, PfHT, concentration 160 µM
  remaining activity at 160 µM: 5.63%
HEK293, 4 min, read-out: 2-DG Uptake AVE, PfHT, concentration 225 µM
  remaining activity at 225 µM: 5.69%
[4]
  remaining activity at 0.001 µM: 100%
[5]
  remaining activity at 0.09375 µM: 91.6%
[6]
  remaining activity at 0.1875 µM: 88.9%
[7]
  remaining activity at 0.3125 µM: 90.2%
[8]
  remaining activity at 0.375 µM: 85.8%
[9]
  remaining activity at 0.625 µM: 85.3%
HEK293, 4 min, read-out: 2-DG uptake (percent uptake relative to vehicle), AVE, PfHT, 0.75 µM compound
  remaining activity at 0.75 µM: 76.1%
[10]
  remaining activity at 1.25 µM: 80.1%
[11]
  remaining activity at 2.5 µM: 68.2%
[12]
  remaining activity at 5 µM: 53.2%
[13]
  remaining activity at 10 µM: 42.3%
[14]
  remaining activity at 20 µM: 30.2%
[15]
  remaining activity at 40 µM: 18.7%
HEK293, 4 min, read-out: 2-DG uptake (percent uptake relative to vehicle), AVE, PfHT, 80 µM compound
  remaining activity at 80 µM: 9.91%
HEK293, 4 min, read-out: 2-DG uptake (percent uptake relative to vehicle), AVE, PfHT, 160 µM compound
  remaining activity at 160 µM: 5.69%
HEK293, 4 min, read-out: 2-DG uptake (percent uptake relative to vehicle), AVE, PfHT, 225 µM compound
  remaining activity at 225 µM: 6.88%
HEK293, 4 min
  inhibition at 5 µM: 50.2%
[2]
  IC50: 4.6 µM and 6.6 µM and 6.34 µM
[3]
  IC50: 5.8 µM and 5.85 µM
[16]
  IC50: 4.6 µM and 6.6 µM and 6.34 µM
PfHT, 0.001 µM compound
  2-DG uptake (percent uptake relative to vehicle), AVE: 100.00
PfHT, concentration 0.001 µM, Expt 1-3
  2-DG Uptake AVE: 100.00
Reference value
  Selectivity Index, 2-DG, PfHT line itself: 1.0

## COc1c(Br)cc([N+](=O)[O-])c(OC)c1C(=O)NC(=O)Nc1c(C)cccc1Cl [WU-2, 3-(3-bromo-2,6-dimethoxy-5-nitrobenzoyl)-1-(2-chloro-6-methylphenyl)urea]
  Maximum Inhibition (%): 84.4%
[4]
  remaining activity at 0.001 µM: 97.7%
[5]
  remaining activity at 0.09375 µM: 96%
[6]
  remaining activity at 0.1875 µM: 93.9%
[7]
  remaining activity at 0.3125 µM: 85%
[8]
  remaining activity at 0.375 µM: 79.7%
[9]
  remaining activity at 0.625 µM: 75.7%
[10]
  remaining activity at 1.25 µM: 68.5%
[11]
  remaining activity at 2.5 µM: 62.4%
[12]
  remaining activity at 5 µM: 50.6%
[13]
  remaining activity at 10 µM: 39.9%
[14]
  remaining activity at 20 µM: 26.3%
[15]
  remaining activity at 40 µM: 17.3%
HEK293, 4 min
  inhibition at 5 µM: 47.9%
[3]
  IC50: 4.2 µM and 4.15 µM
[16]
  IC50: 3.01 µM and 3.83 µM and 5.61 µM
